In patent US8455475B2 (Gruenenthal GmbH, priority 2009, dated 2013):

Columns and labels:
[1] = molecular target: T1, human B1R (bradykinin receptor 1) (Homo sapiens, UniProt P46663); test: FLIPR Ca2+ assay (Fluo-4) on CHO K1 cells stably transfected with the human B1R gene (hB1R cells): % inhibition at 10 μM / IC50, agonist Lys-Des-Arg9-bradykinin; type: cell-based; settings: CHO-K1, human B1R
T1 construct: expressed in transfected cells; host or cells: CHO K1 cells
T1 sequence (P46663 1-353): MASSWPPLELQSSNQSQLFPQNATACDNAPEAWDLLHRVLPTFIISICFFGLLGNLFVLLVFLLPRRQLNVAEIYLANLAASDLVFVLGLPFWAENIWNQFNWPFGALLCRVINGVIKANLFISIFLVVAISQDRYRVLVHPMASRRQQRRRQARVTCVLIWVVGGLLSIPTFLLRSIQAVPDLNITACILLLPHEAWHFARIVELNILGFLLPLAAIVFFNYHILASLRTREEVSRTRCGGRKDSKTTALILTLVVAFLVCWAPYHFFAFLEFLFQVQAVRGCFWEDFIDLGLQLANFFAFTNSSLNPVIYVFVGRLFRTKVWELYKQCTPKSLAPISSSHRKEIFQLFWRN
How it was run: (§1)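 Using a two-addition FLIPR protocol, compound (10 μM for % values; concentration series for IC50) was preincubated 10–20 min with Fluo-4-loaded B1R-expressing CHO K1 cells before EC80 agonist challenge. Suppression of Ca2+ inflow, read as peak fluorescence, is expressed relative to maximum achievable inhibition; duplicate/triplicate, ≥2 independent experiments.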

[2] = molecular target: T2, rat B1R (bradykinin receptor 1) (Rattus norvegicus, UniProt P97583); test: FLIPR Ca2+ assay (Fluo-4) on CHO K1 cells stably transfected with the B1R gene of the rat (rB1R cells): % inhibition at 10 μM / IC50, agonist Des-Arg9-bradykinin; type: cell-based; settings: CHO-K1, rat B1R
T2 construct: expressed in transfected cells; host or cells: CHO K1 cells
T2 sequence (P97583 1-337): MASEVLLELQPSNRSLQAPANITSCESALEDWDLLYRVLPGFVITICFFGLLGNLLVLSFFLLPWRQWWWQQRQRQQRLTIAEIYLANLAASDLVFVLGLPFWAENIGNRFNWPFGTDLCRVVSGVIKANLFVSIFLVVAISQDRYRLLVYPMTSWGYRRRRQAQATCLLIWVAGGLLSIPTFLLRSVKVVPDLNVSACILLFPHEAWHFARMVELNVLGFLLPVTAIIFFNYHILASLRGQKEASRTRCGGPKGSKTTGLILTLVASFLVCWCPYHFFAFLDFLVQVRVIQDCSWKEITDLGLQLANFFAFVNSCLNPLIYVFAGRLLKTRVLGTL
How it was run: as §1

| SMILES | inhibition at 10 µM [1] [%] | inhibition at 10 µM [2] [%] |
| --- | --- | --- |
| O=C(NC1CCc2ccc(C(=O)N3CCC4(CC3)CCN(c3ccncc3)CC4)cc21)c1ccccc1Cl (stereo not shown) [IND_CC-273, 2-Chloro-N-[6-(9-pyridin-4-yl-3,9-diazaspiro[5.5]undecane-3-carbonyl)-2,3-dihydro-1H-inden-1-yl]-benzamide] | 99 | 106 |
| O=C(NC1CCc2ccc(C(=O)N3CCC4(CC3)CCN(c3ccc(C(F)(F)F)cc3)CC4)cc21)c1ccc(F)cc1Cl (stereo not shown) [IND_CC-274, 2-Chloro-4-fluoro-N-[6-[9-[4-(trifluoromethyl)-phenyl]-3,9-diazaspiro[5.5]undecane-3-carbonyl]-2,3-dihydro-1H-inden-1-yl]-benzamide] | 8 | 102 |
| CC1(C)Cc2ccc(C(=O)N3CCC4(CC3)CCN(c3ccncc3)CC4)cc2C1NC(=O)c1ccc(F)cc1Cl (stereo not shown) [IND_CC-275, 2-Chloro-N-[2,2-dimethyl-6-(9-pyridin-4-yl-3,9-diazaspiro[5.5]undecane-3-carbonyl)-1,3-dihydro-inden-1-yl]-4-fluoro-benzamide] | 100 | 107 |
| CC1(C)CC(NC(=O)c2ccc(F)cc2Cl)c2cc(C(=O)N3CCC4(CC3)CCN(c3ccncc3)CC4)ccc21 (stereo not shown) [IND_CC-276, 2-Chloro-N-[3,3-dimethyl-6-(3-pyridin-4-yl-3,9-diazaspiro[5.5]undecane-9-carbonyl)-1,2-dihydro-inden-1-yl]-4-fluoro-benzamide] | 100 | 107 |
| O=C(NC1CCc2ccc(C(=O)N3CCC4(CCN(c5ccncc5)CC4)C3)cc21)c1ccc(F)cc1Cl (stereo not shown) [IND_CC-277, 2-Chloro-4-fluoro-N-[6-(8-pyridin-4-yl-2,8-diazaspiro[4.5]decane-2-carbonyl)-2,3-dihydro-1H-inden-1-yl]-benzamide] | 100 | 105 |
| O=C(NC1CCc2ccc(C(=O)N3CCC4(CC3)CCN(c3ccc(C(F)(F)F)cc3)CC4)cc21)c1c(F)cccc1Cl (stereo not shown) [IND_CC-278, 2-Chloro-6-fluoro-N-[6-[9-[4-(trifluoromethyl)-phenyl]-3,9-diazaspiro[5.5]undecane-3-carbonyl]-2,3-dihydro-1H-inden-1-yl]-benzamide] | 35 | 101 |
| CC1(C)CC(NC(=O)c2c(F)cccc2Cl)c2cc(C(=O)N3CCC4(CC3)CCN(c3ccncc3)CC4)ccc21 (stereo not shown) [IND_CC-279, 2-Chloro-N-[3,3-dimethyl-6-(3-pyridin-4-yl-3,9-diazaspiro[5.5]undecane-9-carbonyl)-1,2-dihydro-inden-1-yl]-6-fluoro-benzamide] | 100 | 106 |
| O=C(NC1CCc2ccc(C(=O)N3CCC4(CCN(c5ccncc5)CC4)C3)cc21)c1c(F)cccc1Cl (stereo not shown) [IND_CC-280, 2-Chloro-6-fluoro-N-[6-(8-pyridin-4-yl-2,8-diazaspiro[4.5]decane-2-carbonyl)-2,3-dihydro-1H-inden-1-yl]-benzamide] | 100 | 108 |
| O=C(NC1CCc2ccc(C(=O)N3CCC4(CC3)CCN(c3ccc(C(F)(F)F)cc3)CC4)cc21)c1cccc(Cl)c1Cl (stereo not shown) [IND_CC-281, 2,3-Dichloro-N-[6-[9-[4-(trifluoromethyl)-phenyl]-3,9-diazaspiro[5.5]undecane-3-carbonyl]-2,3-dihydro-1H-inden-1-yl]-benzamide] | 84 | 105 |
| CC1(C)Cc2ccc(C(=O)N3CCC4(CC3)CCN(c3ccncc3)CC4)cc2C1NC(=O)c1cccc(Cl)c1Cl (stereo not shown) [IND_CC-282, 2,3-Dichloro-N-[2,2-dimethyl-6-(9-pyridin-4-yl-3,9-diazaspiro[5.5]undecane-3-carbonyl)-1,3-dihydro-inden-1-yl]-benzamide] | 69 | 107 |
| CC1(C)CC(NC(=O)c2cccc(Cl)c2Cl)c2cc(C(=O)N3CCC4(CC3)CCN(c3ccncc3)CC4)ccc21 (stereo not shown) [IND_CC-283, 2,3-Dichloro-N-[3,3-dimethyl-6-(3-pyridin-4-yl-3,9-diazaspiro[5.5]undecane-9-carbonyl)-1,2-dihydro-inden-1-yl]-benzamide] | 96 | 107 |
